This is an account of results in the Deep4Chem optical property database.

This data set can be described thus: solvent given as SMILES.

For the compound `COC(=O)C(Cc1ccc2oc(-c3ccc(N(C)C)cc3)nc2c1)NC(=O)OC(C)(C)C` (stereo not given), the absorption maximum worked out at 335.1 nm (in C1CCCCC1); 341.8 nm (in C1CCOC1); 340.8 nm (in C1COCCO1); 338.9 nm (in CC1CCCO1); 345.1 nm (in CC1COC(=O)O1); 343.39 nm (in CC#N). For the same compound, the absorption maximum reads like this: (in CC(C)=O) 343.1 nm; (in CC(C)CC(C)(C)C) 333 nm; (in CC(C)CO) 344.49 nm; (in CC(C)O) 343.9 nm; (in CC(C)OC(C)C) 339.5 nm; (in CC(O)CO) 349.5 nm. For the same compound, the absorption maximum came out at 333 nm (in CCC(C)CC); 332.9 nm (in CCCCC); 333.6 nm (in CCCCCC); 334.9 nm (in CCCCCCCCC); 334.9 nm (in CCCCCCCCCC); 345.7 nm (in CCCCCCCO). The absorption maximum reads like this: (in CCCCCCO) 345.6 nm; (in CCCCCO) 342.7 nm; (in CCCCO) 345.9 nm; (in CCO) 346.6 nm; (in CCOC(C)=O) 339.7 nm; (in CCOCC) 338.2 nm. For the same compound, the absorption maximum was 346.5 nm (in CN(C)C=O); 346.5 nm (in CO); 343.9 nm (in COCCOC); 348.5 nm (in CS(C)=O); 342 nm (in Cc1ccccc1); 341.4 nm (in Cc1ccccc1C). Further, the absorption maximum by setting is: (in ClC(Cl)Cl) 344.6 nm; (in ClCCl) 344.49 nm; (in NC=O) 349.41 nm; (in OC1CCCCC1) 346.5 nm; (in OCCO) 351.9 nm; (in c1ccccc1) 342.99 nm.

Take `Cc1ccc(N(c2ccc(C)cc2)c2ccc3c4cccc5c(N(c6ccc(C)cc6)c6ccc(C)cc6)ccc(c6cccc2c63)c54)cc1`: the absorption maximum is, setting by setting: (in C1CCCCC1) 506 nm; (in C1CCOC1) 502 nm; (in CC#N) 496 nm; (in Cc1ccccc1) 507 nm; (in ClCCl) 473 nm.

`CCCCCc1ccc(-c2ccc(C#Cc3cc(C#Cc4ccc(-c5ccc(CCCCC)cc5)cc4)c4ccc5c(C(=O)c6ccccc6)cc(C#Cc6ccc(-c7ccc(CCCCC)cc7)cc6)c6ccc3c4c65)cc2)cc1` had an absorption maximum (in ClCCl) of 466 nm.

For `COC(=O)C[C@H](NC(=O)[C@H](Cc1c[nH]c2ccccc12)NC(=O)OC(C)(C)C)C(=O)OC`, the absorption maximum is, setting by setting: (in CC#N) 280 nm; (in CCOC(C)=O) 280 nm; (in CO) 280 nm.

`CC(C)(C)c1ccc(-c2cc(-c3ccc(-c4cc(-c5ccc(C(C)(C)C)cc5)c(C(=O)N5CCOCC5)s4)s3)sc2C(=O)N2CCOCC2)cc1` returned an absorption maximum (in ClCCl) of 377 nm.

As to `CN(C)c1ccc2[c](c1)[Ge]([CH3])([CH3])[C]1=CC(=[N+](C)C)C=CC1=C2`, under “in O”, the absorption maximum was 621 nm.

`c1ccc2cc3c(cc2c1)oc1c2oc4cc5ccccc5cc4c2c2ccccc2c31` returned an absorption maximum (in C1CCOC1) of 395 nm.

With `CN(C)c1ccc2nc(/C=C/c3ccccc3)c(=O)oc2c1`, the absorption maximum by setting is: (in C1CCCCC1) 438.5 nm; (in C1COCCO1) 453 nm; (in CC#N) 463 nm; (in CC(C)=O) 462 nm; (in CCCCCCC) 436 nm; (in CCO) 466 nm. Further, the absorption maximum is, setting by setting: (in CCOC(C)=O) 457 nm; (in CN(C)C=O) 469 nm; (in CS(C)=O) 475 nm; (in Cc1ccccc1) 459.5 nm; (in ClC(Cl)Cl) 467 nm; (in ClCCl) 467.5 nm.

In turn, `c1ccc2c3c(ccc2c1)-c1cccc2c1c-3cc1ccccc12` registered an absorption maximum (in CCCCCCC) of 383 nm.

`CCCC[Si](C)(C)c1cccc2ccccc12` returned an absorption maximum (in C1CCCCC1) of 294 nm.

In turn, `COc1ccc(/C=C/c2cc(/C=C/c3ccc(OC)cc3)nc(/C=C/c3ccc(N(C)C)cc3)n2)cc1` registered an absorption maximum (in ClCCl) of 370 nm.

Consider `COc1ccc(C#Cc2c3ccccc3c(C#Cc3ccc(OC)cc3)c3cc4sc(C)cc4cc23)cc1`, for which the absorption maximum (in ClCCl) worked out at 520 nm.

Take `C[Si](C)(C)c1ccc2ccc3c([Si](C)(C)C)ccc4ccc1c2c43`: the absorption maximum was found to be 350 nm (in CCCCCC), 349 nm (in CO) and 352 nm (in ClCCl).

Consider `O=c1c2cc(S(=O)(=O)O)ccc2[nH]c2ccc(S(=O)(=O)O)cc12`, for which the absorption maximum by setting is: (in CS(C)=O) 399 nm; (in O) 396 nm.

Consider `O=C1CCCc2c1[nH]c1cc3c(cc21)OCO3`, for which the absorption maximum by setting is: (in C1CCOC1) 337.3 nm; (in CC#N) 335.33 nm; (in CCCCCCO) 343.23 nm; (in CCO) 338.86 nm; (in CCOC(C)=O) 335.84 nm; (in CS(C)=O) 340.34 nm. For the same compound, the absorption maximum reads like this: (in O) 341.09 nm; (in c1ccccc1) 339.29 nm.

In turn, `c1cnc2c(c1)c1nc(-c3ccc(-c4nc5c6cccnc6c6ncccc6c5[nH]4)cc3)[nH]c1c1cccnc12` came in with an absorption maximum (in CS(C)=O) of 398 nm.

As to `CCCCCCCCC1(CCCCCCCC)c2cc(C#Cc3ccc(N(c4ccccc4)c4ccccc4)cc3)ccc2-c2ccc(C=O)cc21`, the absorption maximum by setting is: (in C1CCOC1) 378 nm; (in C1COCCO1) 381 nm; (in CC#N) 378 nm; (in CC(C)=O) 373 nm; (in CCOC(C)=O) 376 nm; (in CN(C)C=O) 380 nm. Further, the absorption maximum (in CS(C)=O) came out at 381 nm, the absorption maximum (in Cc1ccccc1) is on record as 388 nm, the absorption maximum (in ClC(Cl)Cl) is reported as 386 nm and the absorption maximum (in ClCCl) is 384 nm.

`O=C([O-])c1c(Cl)c(Cl)c(Cl)c(Cl)c1-c1c2cc(Cl)c(=O)c(Cl)c-2oc2c(Cl)c(O)c(Cl)cc12`: under “in O”, the absorption maximum stood at 537 nm.

`COc1ccc(C#Cc2ccc(C#Cc3ccc(C#Cc4ccccc4C#N)cc3C#N)cc2C#N)cc1`: the absorption maximum amounted to 369 nm (in C1CCOC1); 364 nm (in CC#N); 369 nm (in CN(C)C=O); 371 nm (in ClC(Cl)Cl); 371 nm (in c1ccccc1).

For the setting “in CC#N”, `COc1ccccc1-c1nc2c([nH]1)C1=CC(=O)S[C@]1(C)[C@@]1(C)SC(=O)C=C21` had an absorption maximum of 390 nm.

As to `Cc1cc(O)c(C(=O)/C=C/c2ccc(Cl)cc2Cl)c(=O)o1`, the absorption maximum is 349 nm (in CC#N) and 350 nm (in ClCCl).

The compound `CCN(CC)c1ccc2c(-c3ccccc3C(=O)O)c3c([o+]c2c1)/C(=C/C=C/c1ccc(N(C)C)cc1)CCC3` gave an absorption maximum (in ClCCl) of 749 nm.

In the case of `COc1ccc(C2=Cc3ccccc3P2(=O)c2ccccc2)cc1` (stereo not given), the absorption maximum runs as follows: (in C1CCOC1) 362 nm; (in ClCCl) 365 nm.

On to `C#Cc1ccc(-c2nc(-c3ccc(C#C)s3)nc(-c3ccc(C#C)s3)n2)s1`, for which the absorption maximum (in ClCCl) came to 348 nm.

`CC(C)(C)c1ccc2c(c1)c1cc(C(C)(C)C)ccc1n2-c1ccc(C(=O)c2ccc(-n3c4ccc(C(C)(C)C)cc4c4cc(C(C)(C)C)ccc43)nc2)cn1`: the absorption maximum (in C1CCOC1) worked out at 377.31 nm, the absorption maximum (in Cc1ccccc1) was 383.97 nm and the absorption maximum (in ClCCl) is given as 382.72 nm.

In turn, `C[Si]1(C)C2=CC(=[N+]3CCC3)C=C(F)C2=Nc2c(F)cc(N3CCC3)cc21` showed an absorption maximum (in CCO) of 709 nm.

Regarding `C[n+]1ccc(-c2cc[n+](C)cc2)cc1`, the absorption maximum (in CC#N) is 260 nm.

Consider `CC(=O)[B-]1(C(C)=O)OC(c2ccccc2)=CC(c2ccccc2)=[O+]1`, for which the absorption maximum was found to be 377 nm (in CC#N) and 382 nm (in ClC(Cl)(Cl)Cl).

Take `CCCCCCOc1ccc(C#Cc2ccc(C#CC#Cc3ccc(C#Cc4ccc(OCCCCCC)c(OCCCCCC)c4)c4nsnc34)c3nsnc23)cc1OCCCCCC`: the absorption maximum is, setting by setting: (in CN(C)C=O) 468 nm; (in COc1ccccc1) 472 nm; (in Cc1ccccc1) 470 nm; (in ClC(Cl)Cl) 472 nm; (in ClCCCl) 471 nm; (in ClCCl) 469 nm.

In the case of `COc1ccc(-c2cnc3cccc(-c4ccccc4)n23)cc1`, the absorption maximum (in ClCCl) amounted to 341 nm.

As for `CCCCCCc1ccc(-c2ccc(-c3cc(-c4ccc(-c5ccc(CCCCCC)s5)s4)c4ccc5c(-c6ccc(-c7ccc(CCCCCC)s7)s6)cc(-c6ccc(-c7ccc(CCCCCC)s7)s6)c6ccc3c4c65)s2)s1`, the absorption maximum (in ClC(Cl)Cl) stood at 451 nm.

Turning to `COc1ccc2cc(C#CC3=C4CCc5ccccc5C4=[O+][B-](F)(F)O3)ccc2c1`, the absorption maximum (in ClCCl) worked out at 457 nm.

`CCOC(=O)c1cc(C(=O)OCC)c2cc(N(C)C)ccc2n1` yielded an absorption maximum (in CCO) of 443 nm.

Regarding `CC1=C(Br)C(/C=C/c2ccncc2)=[N+]2C1=C(c1ccccc1)c1c(C)c(Br)c(/C=C/c3ccncc3)n1[B-]2(F)F`, the absorption maximum (in ClC(Cl)Cl) is recorded as 620 nm.

The compound `CCC1(CC)c2cc(/C=C/c3cc(Br)c(/C=C/c4ccc5c(c4)C(CC)(CC)c4cc(N6c7ccccc7Sc7ccccc76)ccc4-5)cc3Br)ccc2-c2ccc(N3c4ccccc4Sc4ccccc43)cc21` yielded an absorption maximum (in C1CCOC1) of 439.91 nm; an absorption maximum (in CC#N) of 435.81 nm; an absorption maximum (in CCCCCC) of 433.42 nm; an absorption maximum (in Cc1ccccc1) of 439.91 nm; an absorption maximum (in ClCCl) of 426 nm.

For the setting “in CCCCCCC”, `CC(C)=C(C)C` registered an absorption maximum of 196 nm.
